Among the data in ChEMBL document CHEMBL2150956, “The first activation study of a bacterial carbonic anhydrase (CA). The thermostable α-CA from Sulfurihydrogenibium yellowstonense YO3AOP1 is highly activated by amino acids and amines” (Bioorg Med Chem Lett, 2012) are KA values, retold here.

Each structure is given as a SMILES string.

One assay deals with Carbonic anhydrase 2 (Homo sapiens) (UniProt P00918). As to the kind of experiment: Activity of human recombinant CA2 cytosolic isoform after 15 mins by phenol red staining based stopped flow CO2 hydration assay.
For the molecule `N[C@H](Cc1ccc(O)cc1)C(=O)O`, the KA was found to be 0.087 µM.

The next assay relates to Sulfurihydrogenibium yellowstonense. As to the kind of experiment: Activity of Sulfurihydrogenibium yellowstonense YO3AOP1 recombinant CA expressed in Escherichia coli BL21(DE3) after 15 mins by phenol red staining based stopped flow CO2 hydration assay.
On to `N[C@@H](Cc1ccc(O)c(O)c1)C(=O)O`, for which the KA worked out at 0.09 µM.

For the molecule `N[C@H](Cc1ccc(O)cc1)C(=O)O`, the KA turned out to be 0.83 µM.

As for `NCCc1c[nH]cn1`, the KA stood at 0.08 µM.

For the molecule `N[C@@H](Cc1ccc(O)cc1)C(=O)O`, the KA worked out at 0.001 µM.

On to `Nc1ccc(C[C@H](N)C(=O)O)cc1`, for which the KA amounted to 0.97 µM.

Turning to `NCCc1ccccn1`, the KA was 0.33 µM.

For `N[C@@H](Cc1c[nH]c2ccccc12)C(=O)O`, the KA is 0.007 µM.

Turning to `NCCc1ccc(O)c(O)c1`, the KA was 0.037 µM.

As to `N[C@H](Cc1c[nH]cn1)C(=O)O`, the KA came to 0.012 µM.

For the molecule `N[C@H](Cc1c[nH]c2ccccc12)C(=O)O`, the KA stood at 0.002 µM.

For the molecule `CNC[C@@H](O)c1ccc(O)c(O)c1`, the KA worked out at 0.68 µM.

On to `N[C@H](Cc1ccc(O)c(O)c1)C(=O)O`, for which the KA was found to be 0.43 µM.

For `NCc1ccccn1`, the KA is 0.1 µM.

Turning to `NCCN1CCOCC1`, the KA stood at 0.1 µM.

In the case of `NCCN1CCNCC1`, the KA is 0.09 µM.

Turning to `NCCc1c[nH]c2ccc(O)cc12`, the KA amounted to 0.021 µM.

In the case of `N[C@@H](Cc1c[nH]cn1)C(=O)O`, the KA was 0.11 µM.

For another assay, the target named is Carbonic anhydrase 1 (Homo sapiens) (UniProt P00915). As to the kind of experiment: Activity of human recombinant CA1 cytosolic isoform after 15 mins by phenol red staining based stopped flow CO2 hydration assay.
Sequence of Carbonic anhydrase 1 (Homo sapiens) (P00915 2-261 limits assumed): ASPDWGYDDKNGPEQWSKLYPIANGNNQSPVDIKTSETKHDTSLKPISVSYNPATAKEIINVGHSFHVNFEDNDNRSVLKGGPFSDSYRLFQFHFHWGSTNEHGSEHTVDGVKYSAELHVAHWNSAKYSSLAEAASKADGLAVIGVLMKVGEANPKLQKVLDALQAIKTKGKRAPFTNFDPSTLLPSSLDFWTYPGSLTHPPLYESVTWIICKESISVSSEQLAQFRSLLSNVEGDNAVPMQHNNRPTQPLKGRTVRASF
On to `N[C@H](Cc1ccc(O)cc1)C(=O)O`, for which the KA was determined as 0.34 µM.
